# Reference: patent publication US11369665B2, “Anti-inflammatory peptides and composition comprising the same” (GemVax & KAEL Co., Ltd., priority 2012, dated 2022)
# What was measured:
# [1] = test system: Ki67, pAKT, PI3K, HSTF-1 and Bcl-2; test: Western blot of anti-apoptotic proteins in amyloid-β damaged neural stem cells; format: cell-based, rat; conditions: 20 μM amyloid beta, PEP-1 1, 10 and 50 μM, FIGS. 15A-15F
# neural stem cells [2] = test: Co-treatment amyloid-β and PEP-1: cell death (LDH assay); format: cell-based, rat; conditions: 20 μM amyloid-β protein, co-treated 48 hours
# Description: (§1) To determine whether PEP 1 has the effect of suppressing the neurotoxicity caused by amyloid-β protein, 20 μM amyloid-β protein and various concentrations of PEP-1 were co-treated for 48 hours. The cell viability and apoptosis were measured using MMT assay, CCK-8 assay, LDH assay and TUNEL assay, and neural stem cell proliferation by BrdU assay.
# (§2) (Refer to FIG. 8). LDH assay was carried out for assessment of the degree of cell death as another method, and we confirmed that the increase in cell death by amyloid-β decreased by PEP-1, and efficacy was seen starting at 1 μM concentration (Refer to FIG. 9).
# neural stem cells [3] = test: Co-treatment amyloid-β and PEP-1: viability (MMT and CCK-8 assay); format: cell-based, rat; conditions: 20 μM amyloid-β protein, co-treated 48 hours
# Description: as §1, §2
# reactive oxygen species = test: Reactive oxygen species by DCF-DA staining in neural stem cells; format: cell-based, rat; conditions: 20 μM amyloid-β protein, PEP-1 1 μM, 10 μM, 50 μM
# Description: The mechanism of action of PEP-1's protective effect on apoptosis by amyloid-β protein was investigated. First, it was investigated whether PEP-1 is capable of minimizing the oxidative damage caused by amyloid-β protein. Change in generation of reactive oxygen species after treatment with amyloid-β protein and PEP-1 was observed by using DCF-DA staining (Molecular Probes, Eugene, Oreg.). In the group in which reactive oxygen species increased due to 20 μM of amyloid-β protein, the increased reactive oxygen species decreased by PEP-1 treatment (1 μM, 10 μM, 50 μM) (Refer to FIG. 13).
# neural stem cells [4] = test: Co-treatment amyloid-β and PEP-1: cell mobility (migration); format: cell-based, rat; conditions: 20 μM amyloid-β protein
# Excerpt: Cell mobility is a vital matter due to the nature of neural stem cell. […] (Refer to FIG. 11).
# IL-6 = IL-6 secretion measurement by ELISA in LPS-challenged RAW 264.7 cells; format: cell-based
# Description: Raw 264.7 macrophage cell (KCBL, 40071) from Korea Cell Bank was maintained in Dulbecco's modified Eagle's medium (DMEM; PAA, Austria) containing 10% fetal bovine serum (FBS; GIBCO®), 100 unit/mL of streptomycin, and penicillin (Gibco Laboratories) at 37° C. with 5% CO2. Raw 264.7 cells were seeded into a 96-well plate at a density of 1×10^6 cells/mL and incubated overnight.
# On the following day, the medium was replaced with fresh medium and 5 μg/mL of peptide (obtained as described in Experiment example 1) was added to the cells. After 30 min incubation of cells with the peptide 50 μL of LPS (to a final concentration of 1 μg/mL) was added, and cells were incubated for additional 24 hr. The experimental sample with the induction of inflammatory response was treated with 1 μg/mL mL lipopolysaccharide (LPS; SIGMA-ALDRICH®, USA) and control sample was treated with phosphate buffered saline (PBS; pH 7.2). The supernatant samples from each condition was collected in eppendorf tubes and subjected to further analysis.
# To investigate the effect of PEP-1 on inhibiting proinflammatory cytokine production RAW 264.7 cell were pre-treated with PEP 1 at a concentration of 5 μg/mL challenged with LPS at a concentration of 1 μg/mL, and cells were further incubated for 24 hr. The supernatant samples containing cell culture medium was collected and analyzed for the cytokine levels using ELISA kits (eBioscience, San Diego).
# 96 wells plates were coated with 100 μL of capture antibodies (diluted in coating buffer to the concentration recommended by manufacturer's protocol) overnight at 4° C. Then, after washing the plates 5 times, 200 μL of assay diluents was added to each well and incubated for 1 hr at room temperature for blocking. […]
# Following incubation with the secondary antibody, the plate was washed five times and incubated with 100 μL of avidin-HRP (BD Bioscience) for 30 min at room temperature. […] The reaction was stopped by adding 50 μl of 2N H2SO4 in each well The optical density at 450 nm was measured using a microplate reader. […]
# [5] = RAW 264.7 cells, LPS 1 μg/ml, PEP 1 5 μg/ml, 24 hr
sequence,measurement,setting,value
EARPALLTSRLRFIPK [PEP-1],"protein expression levels of anti-apoptotic proteins Ki67, pAKT, PI3K, HSTF-1, Bcl-2",[1],increased the protein expression levels
same,concentration at which efficacy starts (LDH),neural stem cells [2],1 µM
same,increase in cell death by amyloid-β (LDH),neural stem cells [2],decreased
same,concentration at which protection from amyloid-β neurotoxicity began,neural stem cells [3],10 µM
same,concentration of most effective protection from amyloid-β neurotoxicity,neural stem cells [3],100 µM
same,reactive oxygen species increased by amyloid-β,reactive oxygen species,decreased
same,cell mobility decreased by amyloid-β,neural stem cells [4]; FIG. 11,restored
same,cell mobility compared to control,neural stem cells [4]; PEP-1 10 μM,increased even more
same,cytokine IL-6 production % of control,IL-6; [5],28%
same,cytokine IL-6 production inhibition %,IL-6; [5],72%
same,decrease of proinflammatory cytokine secretion (IL-6),IL-6; co-treatment with LPS,more than 70%
